Earlier results, collected in patent publication US6077537A (Warner-Lambert Company, priority 1998, dated 2000).

Settings: relative to parent compound

plasma concentration of principal active metabolite: well below those of parent compound
Compound: Cc1ccc(C(=CCN2CCCC2)c2cccc(CCC(=O)O)n2)cc1 [propionic acid analogue of acrivastine]
